We go through 3 molecules from patent US5827849A, “Cyclic dericatives, pharmaceutical compositions containing these compounds and processes for preparing them” (Karl Thomae GmbH, priority 1993, dated 1998).

SMILES strings stand for the structures. Structures can show the parent of a compound that is named as a salt.

The subject of data set [1] is Thrombocyte aggregation (collagen-induced). Description: Collagen-induced platelet aggregation in platelet-rich plasma (Born and Cross method). In kind it is cell-based. The conditions noted are these: Homo sapiens, 10 min, platelet-rich plasma of healthy volunteers, 10 minutes incubation at 37° C., compounds of general formula I, read-out: Inhibition of platelet aggregation EC50. The procedure: 2. Antithrombotic activity Thrombocyte aggregation is measured using the Born and Cross method (J. Physiol. 170: 397 (1964)) in platelet-rich plasma taken from healthy volunteers. To inhibit coagulation the blood is mixed with 3.14% sodium citrate in a ratio by volume of 1:10. Collagen-induced aggregation The pattern of the decrease in optical density of the platelet suspension is photometrically measured and recorded after the addition of the aggregation-triggering substance. The rate of aggregation is determined from the angle of inclination of the density curve. The point on the curve where there is maximum light transmittance is used to calculate the optical density. The amount of collagen used is as small as possible but sufficient to produce an irreversible reaction curve. Standard commercial collagen produced by Hormonchemie of Munich is used. Before the addition of the collagen the plasma is incubated for 10 minutes with the test substance at 37° C. From the measurements obtained, an EC50 is determined graphically, indicating a 50% change in the optical density in terms of the inhibition of aggregation. B. Antithrombotic effect Platelet aggregation is measured by the method of Born and Cross (J. Physiol. 170, 397 (1964)) in platelet-rich plasma from healthy test subjects. For anticoagulation, sodium citrate 3.14% is added to the blood in the ratio 1:10 by volume. Collagen-induced aggregation The course of the decrease in optical density of the platelet suspension is measured and recorded photometrically after addition of the aggregation-inducing substance. The rate of aggregation is established from the angle of inclination of the density plot. The point on the plot at which the transmission of light is a maximum is used to calculate the optical density. The amount of collagen is chosen to be as small as possible but sufficient for the reaction plot to have an irreversible course. The collagen commercially obtainable from Hormonchemie, Munich, is used. Before the addition of collagen the plasma is in each case incubated with the substance at 37° C. for 10 minutes. An EC50 which relates to a 50% change in the optical density in the sense of inhibition of aggregation is determined graphically from the measured results.

The test system of a further data set is mice. Description: Tolerance after intravenous administration in mice. In kind it is in vivo. To be noted: mice (three), 30 mg/kg.
In another data set the test system is Human thrombocytes. Description: Inhibition of the binding of 3H-BIBU 52 to human thrombocytes (platelets). To be noted: human thrombocytes in plasma; 3H-BIBU 52 5 nM; 20 minutes, ambient temperature; read-out: 3H-BIBU 52-binding test IC50. The procedure:
1. Inhibition of the binding of ^3 H-BIBU 52 to Human thrombocytes […] Case 5/1093-FL) and various concentrations of the test substance. The free and bound ligand are separated by centrifuging and quantitatively measured by scintillation counting. From the measurements obtained the inhibition of ^3 H-BIBU 52 binding caused by the test substance is determined. In order to do this, donor blood is taken from an anticubital vein and anti-coagulated with trisodium citrate (final concentration 13 mM). The blood is centrifuged for 10 minutes at 170×g and the supernatant platelet-rich plasma (PRP) is removed. The remaining blood is centrifuged vigorously once more in order to recover plasma. The PRP is diluted with autologous plasma 1:10. 750 μl are incubated for 20 minutes at ambient temperature with 50 μl of physiological saline solution, 100 μl of test substance solution, 50 μl of ^14 C-sucrose (3700 Bq) and 50 μl of ^3 H-BIBU 52 (final concentration: 5 nM). In order to measure the non specific binding, 5 μl of BIBU 52 (final concentration 30 μM) are used instead of the test substance. […] The pellet is dissolved in 500 μl of 0.2N NaOH, 450 μl are mixed with 2 ml of scintallator and 25 μl of 5N HCl, and measured. The residual plasma remaining in the pellet is determined from the ^14 C-content, and the bound ligand is determined from the ^3 H-measurement. After substracting the non specific binding, the pellet activity is plotted against the concentration of the test substance and the concentration for 50% inhibition of binding is determined. A. Inhibition of the binding of ^3 H-BIBU 52 to human platelets […] The free and bound ligand is separated by centrifugation and determined quantitatively by scintillation counting. The inhibition of ^3 H-BIBU 52 binding by the test substance is determined from the measurements. For this purpose, donor blood is taken from an antecubital vein and anticoagulated with trisodium citrate (final concentration 13 mM). The blood is centrifuged at 170×g for 10 minutes, and the supernatant platelet-rich plasma (PRP) is removed. The remaining blood is thoroughly centrifuged once again to obtain plasma. The PRP is diluted 1:10 with autologous plasma. […] are incubated with […] of physiological saline, […] of test substance solution, […] of ^14 C-sucrose (3700 Bq) and 50 ml of ^3 H-BIBU 52 (final concentration: 5 nM) at room temperature for 20 minutes. To measure the nonspecific binding, 5 ml of BIBU 52 (final concentration: […]) are used in place of the test substance. […] The pellet is dissolved in 500 ml of 0.2N NaOH, and 450 ml are mixed with 2 ml of scintillator and 25 ml of 5N HCl and measured. The remaining plasma still present in the pellet is determined from the ^14 C content, and the bound ligand is determined from the ^3 H measurement. After subtraction of the nonspecific binding, the activity in the pellet is plotted against the concentration of test substance, and the concentration for 50% inhibition of binding is found.

Data set [2] relates to collagen-induced thrombocyte aggregation. Kind of data set: Inhibition of collagen-induced thrombocyte aggregation ex vivo after oral administration. Format: in vivo. The conditions noted are these: Rhesus monkeys; oral administration of 1 mg/kg.

As a reminder, the EC50 is the concentration that produces a half-maximal response. By IC50 is commonly meant the point on the concentration scale where inhibition reaches its midpoint. Consider `CN1CCc2ccc(N3CCN(c4ccc(CCC(=O)O)cc4)C3=O)cc2CC1` [8(1), 1-[4-(2-carboxyethyl)phenyl]-3-(3-methyl-2,3,4,5-tetrahydro-1H-3-benzazepin-7-yl)-imidazolidin-2-one-hydrochloride×1.5 water], for which the EC50 in data set [1] came out at 150 nM. Further, the “deaths / tolerance after intravenous administration” value in the data set with mice is “none of the three test animals died”. The IC50 in the data set with Human thrombocytes stood at 36 nM.
For the molecule `CC(C)COC(=O)CCc1ccc(N2CCN(c3ccc4c(c3)CCNC4)C2=O)cc1` [Example 7, 1-[4-[2-(Isobutyloxycarbonyl)ethyl]phenyl]-3-(1,2,3,4-tetrahydroisoquinolin-6-yl)-imidazolidin-2-one-hydrochloride×1 water], the “duration of inhibition of collagen-induced thrombocyte aggregation ex vivo” value in data set [2] is reported as “more than 5 hours”.
With `CN1CCc2ccc(N3CCN([C@H]4CC[C@H](CCC(=O)O)CC4)C3=O)cc2CC1.Cl` [Example 19, 1-[trans-4-(2-Carboxyethyl)cyclohexyl]-3-(3-methyl-2,3,4,5-tetrahydro-1H-3-benzazepin-7-yl)-imidazolidin-2-one-hydrochloride], the “duration of inhibition of collagen-induced thrombocyte aggregation ex vivo” value in data set [2] is recorded as “more than 8 hours”. Also, in data set [1], the EC50 came out at 230 nM. Besides, in the data set on mice, the “deaths / tolerance after intravenous administration” value is on record as “none of the three test animals died”. Also, the half-inhibitory concentration (IC50) in the data set with Human thrombocytes was found to be 59 nM.
